Experimental data from patent US20230085307A1, “PYRIDAZINONE COMPOUND AND HERBICIDE” (NISSAN CHEMICAL CORPORATION, priority 2019, published 2023).

test system: oval-leafed pondweed; assay: Test Example 1: herbicidal activity, application before weed generation under submerged conditions (Table 16, symbol C); format: in vivo, oval-leafed pondweed (Monochoria vaginalis); conditions: amount of applied herbicide 320 g/ha
Outline: (§1)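 Alluvial soil was flooded to 4 cm depth, weed seeds were sown mixed and 2.5-leaf rice seedlings were transplanted. On sowing day, the compound's emulsion, diluted in water to a set dose, was applied to the water surface. Plants grew at 25–30 °C and were scored 0–5 after three weeks.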

| Compound | Herbicidal effect, C: oval-leafed pondweed |
| --- | --- |
| CCCC(=O)Oc1c(C)nn(C)c(=O)c1-c1c(-c2ccc(C#N)cc2)sc2c(Cl)cccc12 [4-032] | 0 (Herbicidal rate of 5% or less (almost no effect)) |
| CCCC(=O)Oc1c(C)nn(C)c(=O)c1-c1c(-c2ccc(F)cc2OCC)sc2c(Cl)cccc12 [4-036] | 4 (Herbicidal rate of 70% or more and less than 90%) |

test system: windgrass; assay: Test Example 5: herbicidal effect by foliage application, plastic box (Table 20, symbol L); format: in vivo, windgrass (Apera spica-venti); conditions: 320 g/ha, foliage application after 14-day growth, evaluated three weeks after application
Outline: (§2)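 Foliar spray test: emulsion formulation diluted in water to a set application rate, sprayed onto 14-day-old plants raised in diluvial soil at 25° C to 30° C under glass. Both herbicidal effect and crop effect rated visually three weeks later.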

| Compound | herbicidal effect on L: windgrass (evaluation grade 0-5) |
| --- | --- |
| CCCC(=O)Oc1c(C)nn(C)c(=O)c1-c1c(-c2ccc(C#N)cc2)sc2c(Cl)cccc12 [4-032] | 4 (Herbicidal rate of 70% or more and less than 90%) |
| CCCC(=O)Oc1c(C)nn(C)c(=O)c1-c1c(-c2ccc(F)cc2OCC)sc2c(Cl)cccc12 [4-036] | 4 (Herbicidal rate of 70% or more and less than 90%) |

test system: barnyard grass; assay: Test Example 5: herbicidal effect by foliage application, plastic box (Table 20, symbol H); format: in vivo, barnyard grass (Echinochloa crus-galli); conditions: 320 g/ha, foliage application after 14-day growth, evaluated three weeks after application
Outline: as §2

| Compound | herbicidal effect on H: barnyard grass (evaluation grade 0-5) |
| --- | --- |
| CCCC(=O)Oc1c(C)nn(C)c(=O)c1-c1c(-c2ccc(C#N)cc2)sc2c(Cl)cccc12 [4-032] | 0 (Herbicidal rate of 5% or less (almost no effect)) |
| CCCC(=O)Oc1c(C)nn(C)c(=O)c1-c1c(-c2ccc(F)cc2OCC)sc2c(Cl)cccc12 [4-036] | 5 (Herbicidal rate of 90% or more (almost completely withered)) |

test system: chickweed; assay: Test Example 5: herbicidal effect by foliage application, plastic box (Table 20, symbol P); format: in vivo, common chickweed (Stellaria media); conditions: 320 g/ha, foliage application after 14-day growth, evaluated three weeks after application
Outline: as §2

| Compound | herbicidal effect on P: chickweed (evaluation grade 0-5) |
| --- | --- |
| CCCC(=O)Oc1c(C)nn(C)c(=O)c1-c1c(-c2ccc(C#N)cc2)sc2c(Cl)cccc12 [4-032] | 5 (Herbicidal rate of 90% or more (almost completely withered)) |
| CCCC(=O)Oc1c(C)nn(C)c(=O)c1-c1c(-c2ccc(F)cc2OCC)sc2c(Cl)cccc12 [4-036] | 5 (Herbicidal rate of 90% or more (almost completely withered)) |

test system: velvetleaf; assay: Test Example 5: herbicidal effect by foliage application, plastic box (Table 20, symbol M); format: in vivo, velvetleaf (Abutilon theophrasti); conditions: 320 g/ha, foliage application after 14-day growth, evaluated three weeks after application
Outline: as §2

| Compound | herbicidal effect on M: velvetleaf (evaluation grade 0-5) |
| --- | --- |
| CCCC(=O)Oc1c(C)nn(C)c(=O)c1-c1c(-c2ccc(C#N)cc2)sc2c(Cl)cccc12 [4-032] | 4 (Herbicidal rate of 70% or more and less than 90%) |
| CCCC(=O)Oc1c(C)nn(C)c(=O)c1-c1c(-c2ccc(F)cc2OCC)sc2c(Cl)cccc12 [4-036] | 5 (Herbicidal rate of 90% or more (almost completely withered)) |

test system: lambsquarters; assay: Test Example 5: herbicidal effect by foliage application, plastic box (Table 20, symbol O); format: in vivo, lambsquarters (Chenopodium album); conditions: 320 g/ha, foliage application after 14-day growth, evaluated three weeks after application
Outline: as §2

| Compound | herbicidal effect on O: lambsquarters (evaluation grade 0-5) |
| --- | --- |
| CCCC(=O)Oc1c(C)nn(C)c(=O)c1-c1c(-c2ccc(C#N)cc2)sc2c(Cl)cccc12 [4-032] | 3 (Herbicidal rate of 40% or more and less than 70%) |
| CCCC(=O)Oc1c(C)nn(C)c(=O)c1-c1c(-c2ccc(F)cc2OCC)sc2c(Cl)cccc12 [4-036] | 2 (Herbicidal rate of 20% or more and less than 40%) |

test system: velvetleaf; assay: Test Example 4: herbicidal effect by soil treatment (Table 19, symbol M); format: in vivo, velvetleaf (Abutilon theophrasti); conditions: amount of applied herbicide 320 g/ha
Outline: (§3)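 Herbicidal effect was rated 3 weeks after treatment, using the scoring criteria of an earlier test. The compound, formulated as an emulsion and diluted in water to a set herbicide amount, had been sprayed uniformly on soil over freshly sown seeds. Growth took place in a greenhouse at 25° C. to 30° C.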

| Compound | Herbicidal effect by soil treatment, M: velvetleaf |
| --- | --- |
| CCCC(=O)Oc1c(C)nn(C)c(=O)c1-c1c(-c2ccc(C#N)cc2)sc2c(Cl)cccc12 [4-032] | 0 (Herbicidal rate of 5% or less (almost no effect)) |
| CCCC(=O)Oc1c(C)nn(C)c(=O)c1-c1c(-c2ccc(F)cc2OCC)sc2c(Cl)cccc12 [4-036] | 2 (Herbicidal rate of 20% or more and less than 40%) |

test system: lambsquarters; assay: Test Example 4: herbicidal effect by soil treatment (Table 19, symbol O); format: in vivo, lambsquarters (Chenopodium album); conditions: amount of applied herbicide 320 g/ha
Outline: as §3

| Compound | Herbicidal effect by soil treatment, O: lambsquarters |
| --- | --- |
| CCCC(=O)Oc1c(C)nn(C)c(=O)c1-c1c(-c2ccc(C#N)cc2)sc2c(Cl)cccc12 [4-032] | 0 (Herbicidal rate of 5% or less (almost no effect)) |
| CCCC(=O)Oc1c(C)nn(C)c(=O)c1-c1c(-c2ccc(F)cc2OCC)sc2c(Cl)cccc12 [4-036] | 1 (Herbicidal rate of 5% or more and less than 20%) |

test system: Italian ryegrass; assay: Test Example 5: herbicidal effect by foliage application, plastic box (Table 20, symbol K); format: in vivo, Italian ryegrass (Lolium multiflorum); conditions: 320 g/ha, foliage application after 14-day growth, evaluated three weeks after application
Outline: as §2

| Compound | herbicidal effect on K: Italian ryegrass (evaluation grade 0-5) |
| --- | --- |
| CCCC(=O)Oc1c(C)nn(C)c(=O)c1-c1c(-c2ccc(C#N)cc2)sc2c(Cl)cccc12 [4-032] | 0 (Herbicidal rate of 5% or less (almost no effect)) |
| CCCC(=O)Oc1c(C)nn(C)c(=O)c1-c1c(-c2ccc(F)cc2OCC)sc2c(Cl)cccc12 [4-036] | 4 (Herbicidal rate of 70% or more and less than 90%) |

test system: Japanese bulrush; assay: Test Example 2: herbicidal activity, application during weed generation under submerged conditions (Table 17, symbol B); format: in vivo, Japanese bulrush (Schoenoplectus juncoides); conditions: AAH 320 g/ha; application during weed generation, submerged conditions
Outline: (§4)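 Steps: fill Wagner pots with alluvial soil; add water to give 4 cm depth; sow the species mixed; grow under glass at 25–30° C.; at 1–2 leaves apply water-diluted emulsion formulation to the water surface at a fixed herbicide amount; score after 3 weeks.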

| Compound | herbicidal effect rating, B: Japanese bulrush |
| --- | --- |
| CCCC(=O)Oc1c(C)nn(C)c(=O)c1-c1c(-c2ccc(C#N)cc2)sc2c(Cl)cccc12 [4-032] | 3 (Herbicidal rate of 40% or more and less than 70%) |
| CCCC(=O)Oc1c(C)nn(C)c(=O)c1-c1c(-c2ccc(F)cc2OCC)sc2c(Cl)cccc12 [4-036] | 0 (Herbicidal rate of 5% or less (almost no effect)) |

test system: wild oat; assay: Test Example 4: herbicidal effect by soil treatment (Table 19, symbol I); format: in vivo, wild oat (Avena fatua); conditions: amount of applied herbicide 320 g/ha
Outline: as §3

| Compound | Herbicidal effect by soil treatment, I: wild oat |
| --- | --- |
| CCCC(=O)Oc1c(C)nn(C)c(=O)c1-c1c(-c2ccc(C#N)cc2)sc2c(Cl)cccc12 [4-032] | 0 (Herbicidal rate of 5% or less (almost no effect)) |
| CCCC(=O)Oc1c(C)nn(C)c(=O)c1-c1c(-c2ccc(F)cc2OCC)sc2c(Cl)cccc12 [4-036] | 0 (Herbicidal rate of 5% or less (almost no effect)) |

test system: persian speedwell; assay: Test Example 4: herbicidal effect by soil treatment (Table 19, symbol R); format: in vivo, Persian speedwell (Veronica persica); conditions: amount of applied herbicide 320 g/ha
Outline: as §3

| Compound | Herbicidal effect by soil treatment, R: persian speedwell |
| --- | --- |
| CCCC(=O)Oc1c(C)nn(C)c(=O)c1-c1c(-c2ccc(C#N)cc2)sc2c(Cl)cccc12 [4-032] | 3 (Herbicidal rate of 40% or more and less than 70%) |
| CCCC(=O)Oc1c(C)nn(C)c(=O)c1-c1c(-c2ccc(F)cc2OCC)sc2c(Cl)cccc12 [4-036] | 2 (Herbicidal rate of 20% or more and less than 40%) |

test system: Italian ryegrass; assay: Test Example 4: herbicidal effect by soil treatment (Table 19, symbol K); format: in vivo, Italian ryegrass (Lolium multiflorum); conditions: amount of applied herbicide 320 g/ha
Outline: as §3

| Compound | Herbicidal effect by soil treatment, K: Italian ryegrass |
| --- | --- |
| CCCC(=O)Oc1c(C)nn(C)c(=O)c1-c1c(-c2ccc(C#N)cc2)sc2c(Cl)cccc12 [4-032] | 0 (Herbicidal rate of 5% or less (almost no effect)) |
| CCCC(=O)Oc1c(C)nn(C)c(=O)c1-c1c(-c2ccc(F)cc2OCC)sc2c(Cl)cccc12 [4-036] | 0 (Herbicidal rate of 5% or less (almost no effect)) |

test system: rice flat sedge; assay: Test Example 3: herbicidal effect by foliage application, Wagner pot (Table 18, symbol E); format: in vivo, rice flat sedge (Cyperus iria); conditions: 320 g/ha
Outline: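 Plants were sown in alluvial soil held under 0.1–0.5 cm standing water and grown 14 days in a greenhouse at 25–30 °C. An emulsifiable formulation, water-diluted to the set dose, was then sprayed onto the foliage, and effects were scored three weeks later using previously defined criteria.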

| Compound | herbicidal effect on rice flat sedge (E) |
| --- | --- |
| CCCC(=O)Oc1c(C)nn(C)c(=O)c1-c1c(-c2ccc(C#N)cc2)sc2c(Cl)cccc12 [4-032] | 5 (Herbicidal rate of 90% or more (almost completely withered)) |
| CCCC(=O)Oc1c(C)nn(C)c(=O)c1-c1c(-c2ccc(F)cc2OCC)sc2c(Cl)cccc12 [4-036] | 5 (Herbicidal rate of 90% or more (almost completely withered)) |

test system: late watergrass; assay: Test Example 2: herbicidal activity, application during weed generation under submerged conditions (Table 17, symbol A); format: in vivo, late watergrass (Echinochloa oryzicola); conditions: AAH 320 g/ha; application during weed generation, submerged conditions
Outline: as §4

| Compound | herbicidal effect rating, A: late watergrass |
| --- | --- |
| CCCC(=O)Oc1c(C)nn(C)c(=O)c1-c1c(-c2ccc(C#N)cc2)sc2c(Cl)cccc12 [4-032] | 0 (Herbicidal rate of 5% or less (almost no effect)) |
| CCCC(=O)Oc1c(C)nn(C)c(=O)c1-c1c(-c2ccc(F)cc2OCC)sc2c(Cl)cccc12 [4-036] | 3 (Herbicidal rate of 40% or more and less than 70%) |

test system: Japanese bulrush; assay: Test Example 1: herbicidal activity, application before weed generation under submerged conditions (Table 16, symbol B); format: in vivo, Japanese bulrush (Schoenoplectus juncoides); conditions: amount of applied herbicide 320 g/ha
Outline: as §1

| Compound | Herbicidal effect, B: Japanese bulrush |
| --- | --- |
| CCCC(=O)Oc1c(C)nn(C)c(=O)c1-c1c(-c2ccc(C#N)cc2)sc2c(Cl)cccc12 [4-032] | 2 (Herbicidal rate of 20% or more and less than 40%) |
| CCCC(=O)Oc1c(C)nn(C)c(=O)c1-c1c(-c2ccc(F)cc2OCC)sc2c(Cl)cccc12 [4-036] | 3 (Herbicidal rate of 40% or more and less than 70%) |

test system: wild oat; assay: Test Example 5: herbicidal effect by foliage application, plastic box (Table 20, symbol I); format: in vivo, wild oat (Avena fatua); conditions: 320 g/ha, foliage application after 14-day growth, evaluated three weeks after application
Outline: as §2

| Compound | herbicidal effect on I: wild oat (evaluation grade 0-5) |
| --- | --- |
| CCCC(=O)Oc1c(C)nn(C)c(=O)c1-c1c(-c2ccc(C#N)cc2)sc2c(Cl)cccc12 [4-032] | 0 (Herbicidal rate of 5% or less (almost no effect)) |
| CCCC(=O)Oc1c(C)nn(C)c(=O)c1-c1c(-c2ccc(F)cc2OCC)sc2c(Cl)cccc12 [4-036] | 0 (Herbicidal rate of 5% or less (almost no effect)) |
